Measured values published in patent publication US12679801B2, “Amino lipid and preparation method and application thereof” (Shenzhen MagicRNA Biotechnology Co., Ltd., priority 2022, dated 2026).

System: BMDC primary cells
Test: Luc mRNA LNP transfection on BMDC primary cells (Embodiment 13, Table 3)
Format: cell-based, C57BL/6 mice
Settings: 16 h, ONE-Glo Luciferase
Experimental: Preparation method: the same as that described in Embodiment 7.
Animal preparation: 6-week-old female C57BL/6 mice with the body weight about 20 g were selected. The feeding environment was an SPF stage feeding room. Animal tests were strictly performed according to the guide of the national health institute and the animal ethics requirements.
Cell acquisition: C57BL/6 mice were killed through cervical dislocation, and were soaked for 5 min in 75% ethyl alcohol. Dissection was performed to obtain thigh and calf tibiae of the mice. Attached muscles were removed to expose sclerotin. Then, bone marrow in tibiae was blown out by using a 1 mL injector sucked with PBS. After the bone marrow was blown away, impurities were filtered away by a 50 μm filter screen. A red blood cell lysis buffer (3-4 mL) was added into an obtained filtrate. Then, after placement for 5 min, 800 g centrifugation was performed for 5 min to remove the supernatant. The obtained cells were placed into a 1640 culture medium (containing 10% fetal calf serum, 20 ng/mL GMCSF and 10 ng/ml IL4) to be resuspended, and were inoculated into a 6-well plate at an inoculation density of 100000 cells/ml culture medium. The materials were placed into a 37° C. cell incubator containing 5% CO2. Half liquid change was performed once every 2 days. Suspended cells and loose wall attached cells were collected on the seventh day, and were […], and the volume of a culture medium was 100 μL.
Cell transfection: lipid nanoparticles coated with luciferase mRNA were added into a 96-well all-white ELISA plate laid with primary cells. The adding volume of the mRNA lipid nanoparticles in each well was controlled to be 10 μL. Then, the materials were put into a 37° C. incubator containing 5% CO2 for 16 h.
Transfection efficiency detection: 20 μL of a substrate ONE-Glo™ Luciferase was added into each well of a 96-well all-white ELISA plate. After 1 min, detection was performed by a multifunctional or multimode microplate reader.

First: CCCCCCCCCC(CCCCCCC)C(=O)OCC(CCCCCC)OC(=O)C(C)CCN(C)C (stereo not shown) [E3C79A10]
Second: CCCCCCCCCCCCC(COC(=O)C(CCCCC)CCCCC)OC(=O)C(C)CCN(C)C (stereo not shown) [E9C57A10]
The Luciferase luminescence intensity of the first is higher: 7.4E+ 04 for the first, 3.2E+ 04 for the second.

Going from `CCCCCCCCCC(CCCCCCC)C(=O)OCC(CCCCCC)OC(=O)CCCCN(C)C` (stereo not shown) [E3C79A11] to `CCCCCCCCC(COC(=O)C(CCCCCC)CCCCCCCC)OC(=O)CCCCN(C)C` (stereo not shown) [E5C71A11], the Luciferase luminescence intensity falls from 9.0E+ 04 to 4.6E+ 04.

Compared with `CCCCCCCCCC(CCCCCCC)C(=O)OCC(CCCCCC)OC(=O)CCCCCN(C)C` (stereo not shown) [E3C79A12], `CCCCCCCCCC(CCCCCCC)C(=O)OCC(CCCCCCC)OC(=O)CCCCN(C)C` (stereo not shown) [E4C79A11] is lower in Luciferase luminescence intensity: 6.7E+ 04 for the first, 3.4E+ 04 for the second.

Compared with `CCCCCCCCCCCCCC(C)C(=O)OCC(CCCCCCC)OC(=O)CCCCN(C)C` (stereo not shown) [E4C72A11], `CCCCCCCCCCCCCCC(C)C(=O)OCC(CCCCCCC)OC(=O)CCCCN(C)C` (stereo not shown) [E4C74A11] is higher in Luciferase luminescence intensity: 5.8E+ 04 for the first, 6.0E+ 04 for the second.

First: CCCCCCCCCCCCCCC(C)C(=O)OCC(CCCCCCC)OC(=O)CCCN(C)C (stereo not shown) [E4C74A9]
Second: CCCCCCCCCCCCCC(C)C(=O)OCC(CCCCCCCCC)OC(=O)CCCCN(C)C (stereo not shown) [E6C72A11]
The Luciferase luminescence intensity of the first is higher: 6.9E+ 04 for the first, 5.0E+ 04 for the second.

First: CCCCCCCCCCCCCCC(C)C(=O)OCC(CCCCCCC)OC(=O)C(C)CCN(C)C (stereo not shown) [E4C74A10]
Second: CCCCCCCCCCCCCCC(C)C(=O)OCC(CCCCCCCC)OC(=O)C(C)CCN(C)C (stereo not shown) [E5C74A10]
The Luciferase luminescence intensity of the first is higher: 4.7E+ 04 for the first, 2.9E+ 04 for the second.

Compared with `CCCCCCCCCC(CCCCCCC)C(=O)OCC(CCCCCCC)OC(=O)CCCN(C)C` (stereo not shown) [E4C79A9], `CCCCCCCCCCCCC(COC(=O)C(CCCCCC)CCCCCC)OC(=O)CCCN(C)C` (stereo not shown) [E9C64A9] is higher in Luciferase luminescence intensity: 2.2E+ 04 for the first, 8.9E+ 04 for the second.

Going from `CCCCCCCCCC(CCCCCCC)C(=O)OCC(CCCCCCC)OC(=O)C(C)CCN(C)C` (stereo not shown) [E4C79A10] to `CCCCCCCCCCCC(COC(=O)C(CCCCCC)CCCCCC)OC(=O)C(C)CCN(C)C` (stereo not shown) [E9C64A10], the Luciferase luminescence intensity rises from 1.3E+ 04 to 6.1E+ 04.

Compared with `CCCCCCCCCC(CCCCCCC)C(=O)OCC(CCCCCCC)OC(=O)CCCCCN(C)C` (stereo not shown) [E4C79A12], `CCCCCCCCCC(CCCCCCC)C(=O)OCC(CCCCCCCC)OC(=O)CCCCN(C)C` (stereo not shown) [E5C79A11] is higher in Luciferase luminescence intensity: 2.5E+ 04 for the first, 3.6E+ 04 for the second.

Going from `CCCCCCCCCCCCCCCCCC(=O)OCC(CCCCCCCC)OC(=O)CCCCCN(C)C` (stereo not shown) [E5C13A12] to `CCCCCCCCCCCCCCCC(COC(=O)CCCCCCCCCC)OC(=O)CCCCN(C)C` (stereo not shown) [E12C6A11], the Luciferase luminescence intensity rises from 1.1E+ 04 to 1.2E+ 04.

Compared with `CCCCCCCC/C=C/CCCCCCCC(=O)OCC(CCCCCCCC)OC(=O)C1CCN(C)CC1` (stereo not shown) [E5C82A23, 1-(Octadec-9-Enoyloxy) Decan-2-Yl 1-Methylpiperidine-4-Carboxylate], `CCCCCCCCCCCCC(COC(=O)C(CC)CCCCCCCCC)OC(=O)C1CCN(C)CC1` (stereo not shown) [E9C60A23] is higher in Luciferase luminescence intensity: 1.4E+ 04 for the first, 1.8E+ 04 for the second.

Going from `CCCCCCCCCC(COC(=O)C(CCCCCC)CCCCCCCC)OC(=O)CCCCN(C)C` (stereo not shown) [E6C71A11] to `CCCCCCCCCCC(COC(=O)C(CCCCCC)CCCCCCCC)OC(=O)CCCCN(C)C` (stereo not shown) [E7C71A11], the Luciferase luminescence intensity rises from 3.4E+ 04 to 4.4E+ 04.

Going from `CCCCCCCCCCCCCCC(C)C(=O)OCC(CCCCCCCCC)OC(=O)C(C)CCN(C)C` (stereo not shown) [E6C74A10] to `CCCCCCCCCCCCCCC(C)C(=O)OCC(CCCCCCCCCC)OC(=O)C(C)CCN(C)C` (stereo not shown) [E7C74A10], the Luciferase luminescence intensity rises from 1.1E+ 04 to 3.7E+ 04.

Compared with `CCCCCCCCCCCCCCC(C)C(=O)OCC(CCCCCCCCC)OC(=O)CCCCN(C)C` (stereo not shown) [E6C74A11], `CCCCCCCCCCCCCCC(C)C(=O)OCC(CCCCCCCCCC)OC(=O)CCCCN(C)C` (stereo not shown) [E7C74A11] is lower in Luciferase luminescence intensity: 4.5E+ 04 for the first, 3.2E+ 04 for the second.

Compared with `CCCCCCCCCC(COC(=O)C(CCCCCCC)CCCCCCCCC)OC(=O)C(C)CCN(C)C` (stereo not shown) [E6C79A10], `CCCCCCCCCCC(COC(=O)C(CCCCCCC)CCCCCCCCC)OC(=O)C(C)CCN(C)C` (stereo not shown) [E7C79A10] is lower in Luciferase luminescence intensity: 4.6E+ 04 for the first, 3.6E+ 04 for the second.

`CCCCCCCCCC(COC(=O)C(CCCCCCC)CCCCCCCCC)OC(=O)CCCCN(C)C` (stereo not shown) [E6C79A11] and `CCCCCCCCCCCC(COC(=O)C(CCCCCC)CCCCCCCC)OC(=O)CCCCN(C)C` (stereo not shown) [E8C71A11] are the same in Luciferase luminescence intensity: 5.4E+ 04 for the first, 5.4E+ 04 for the second.

First: CCCCCCCCCC(COC(=O)C(CCCCCCC)CCCCCCCCC)OC(=O)CCCCCN(C)C (stereo not shown) [E6C79A12]
Second: CCCCCCCCCCC(COC(=O)C(CCCCCCC)CCCCCCCCC)OC(=O)CCCCN(C)C (stereo not shown) [E7C79A11]
The Luciferase luminescence intensity of the first is lower: 2.5E+ 04 for the first, 4.2E+ 04 for the second.

Compared with `CCCCCCCCCCC(COC(=O)C(CCCCCC)CCCCCCCC)OC(=O)C(C)CCN(C)C` (stereo not shown) [E7C71A10], `CCCCCCCCCCCCC(COC(=O)C(CCCC)CCCCCC)OC(=O)C(C)CCN(C)C` (stereo not shown) [E9C56A10] is higher in Luciferase luminescence intensity: 8.3E+ 04 for the first, 8.8E+ 04 for the second.

Going from `CCCCCCCCCCCCCCC(C)C(=O)OCC(CCCCCCCCCC)OC(=O)CCCN(C)C` (stereo not shown) [E7C74A9] to `CCCCCCCCCCCCCC(C)C(=O)OCC(CCCCCCCCCCC)OC(=O)CCCN(C)C` (stereo not shown) [E8C72A9], the Luciferase luminescence intensity rises from 4.8E+ 04 to 6.1E+ 04.

Compared with `CCCCCCCCCCC(COC(=O)C(CCCCCCC)CCCCCCCCC)OC(=O)CCCN(C)C` (stereo not shown) [E7C79A9], `CCCCCCCCCCCC(COC(=O)C(CCCCCCC)CCCCCCCCC)OC(=O)CCCN(C)C` (stereo not shown) [E8C79A9] is lower in Luciferase luminescence intensity: 5.6E+ 04 for the first, 3.6E+ 04 for the second.

Going from `CCCCCCCCCCC(COC(=O)C(CCCCCCC)CCCCCCCCC)OC(=O)CCCCCN(C)C` (stereo not shown) [E7C79A12] to `CCCCCCCCCCCCCC(COC(=O)C(CCCCCCC)CCCCCCCCC)OC(=O)CCCN(C)C` (stereo not shown) [E10C79A9], the Luciferase luminescence intensity falls from 3.5E+ 04 to 1.3E+ 04.

Going from `CCCCCCCCCCCC(COC(=O)C(CCCCCC)CCCCCCCC)OC(=O)CCCN(C)C` (stereo not shown) [E8C71A9] to `CCCCCCCCCCCCCCC(COC(=O)C(CCCCC)CCCCC)OC(=O)CCCCN(C)C` (stereo not shown) [E11C57A11], the Luciferase luminescence intensity falls from 8.8E+ 04 to 6.4E+ 04.

Going from `CCCCCCCCCCCC(COC(=O)C(CCCCCC)CCCCCCCC)OC(=O)C1CCN(C)CC1` (stereo not shown) [E8C71A23] to `CCCCCCCCCCCCCCCC(COC(=O)C(CCCCCC)CCCCCC)OC(=O)C1CCN(C)CC1` (stereo not shown) [E12C64A23], the Luciferase luminescence intensity rises from 1.5E+ 04 to 1.8E+ 04.

Going from `CCCCCCCCCCCCCC(C)C(=O)OCC(CCCCCCCCCCC)OC(=O)CCCCN(C)C` (stereo not shown) [E8C72A11] to `CCCCCCCCCCCCCCC(C)C(=O)OCC(CCCCCCCCCCC)OC(=O)CCCCN(C)C` (stereo not shown) [E8C74A11], the Luciferase luminescence intensity falls from 7.3E+ 04 to 4.0E+ 04.

First: CCCCCCCCCCCCCCC(C)C(=O)OCC(CCCCCCCCCCC)OC(=O)CCCN(C)C (stereo not shown) [E8C74A9]
Second: CCCCCCCCCCCCCCC(C)C(=O)OCC(CCCCCCCCCCCCC)OC(=O)CCCN(C)C (stereo not shown) [E10C74A9]
The Luciferase luminescence intensity of the first is higher: 8.5E+ 04 for the first, 1.3E+ 04 for the second.

First: CCCCCCCCCCCCCCC(C)C(=O)OCC(CCCCCCCCCCC)OC(=O)C1CCN(C)CC1 (stereo not shown) [E8C74A23]
Second: CCCCCCCCCCCCCCC(C)C(=O)OCC(CCCCCCCCCCCCC)OC(=O)C1CCN(C)CC1 (stereo not shown) [E10C74A23]
The Luciferase luminescence intensity of the first is higher: 1.3E+ 04 for the first, 1.0E+ 04 for the second.

First: CCCCCCCCCCCCC(COC(=O)C(C)(C)CCCCCCCC)OC(=O)CCCCN(C)C (stereo not shown) [E9C58A11]
Second: CCCCCCCCCCCCCCC(COC(=O)C(C)(C)CCCCCCCC)OC(=O)CCCCN(C)C (stereo not shown) [E11C58A11]
The Luciferase luminescence intensity of the first is higher: 3.5E+ 04 for the first, 2.3E+ 04 for the second.

First: CCCCCCCCCCCCC(COC(=O)C(CCC)CCCCCCCC)OC(=O)C(C)CCN(C)C (stereo not shown) [E9C62A10]
Second: C=CCCCCC(COC(=O)C(CCCCCCC)CCCCCCCCC)OC(=O)C(C)CCN(C)C (stereo not shown) [E15C79A10]
The Luciferase luminescence intensity of the first is lower: 4.3E+ 04 for the first, 8.9E+ 04 for the second.

Going from `CCCCCCCCCCCCC(COC(=O)CCCCCCCCCC(C)CC)OC(=O)C(C)CCN(C)C` (stereo not shown) [E9C63A10] to `CCCCCCCCCCCCC(COC(=O)CCCCCCCCCCCC(C)C)OC(=O)C(C)CCN(C)C` (stereo not shown) [E9C67A10], the Luciferase luminescence intensity rises from 5.6E+ 04 to 7.8E+ 04.

Compared with `CCCCCCCCCCCCC(COC(=O)C(C)(C)CCCCCCCCCC)OC(=O)CCCN(C)C` (stereo not shown) [E9C66A9], `CCCCCCCCCCCCCCC(COC(=O)CCCCCCCCCCC)OC(=O)CCCN(C)C` (stereo not shown) [E11C7A9, 2-((4-(Dimethylamino)Butanoyl)Oxy)Hexadecyl Dodecanoate] is lower in Luciferase luminescence intensity: 2.3E+ 04 for the first, 1.5E+ 04 for the second.

Compared with `CCCCCCCCCCCCCCC(COC(=O)C(CC)CCCCCCCCC)OC(=O)CCCCN(C)C` (stereo not shown) [E11C60A11], `CCCCCCCCCCCCCCC(COC(=O)C(CCC)CCCCCCCC)OC(=O)CCCCN(C)C` (stereo not shown) [E11C62A11] is higher in Luciferase luminescence intensity: 3.3E+ 04 for the first, 4.1E+ 04 for the second.

`CCCCCCCCCCCCCCCC(COC(=O)C(C)CCCCCCCCCCCCCC)OC(=O)CCCCN(C)C` (stereo not shown) [E12C74A11] showed a Luciferase luminescence intensity of 1.1E+ 04.

In the case of `CCCCCCCCCCCCCCC(C)C(=O)OCC(CCCCCCCC)OC(=O)CCCCN(C)C` (stereo not shown) [E5C74A11], the Luciferase luminescence intensity is reported as 7.7E+ 03.
